Tests used:
Format in all cases: in vivo
[1] = Pharmacokinetics of ALX-171 after i.v. and p.o. administration; conditions: mouse, female BALB/c mice
[2] = test system: DOI-induced head twitches in mice; assay: DOI-induced head twitch test
Procedure: The experiments were performed according to the procedure described in our previous studies. Briefly, to habituate mice to the experimental environment, each animal was transferred to a 12 cm (diameter) × 20 cm (height) glass cage lined with sawdust 30 min before treatment. Test compounds were administered intraperitoneally (i.p.) at doses of 2.5, 5, and 10 mg/kg body weight 60 min before the test was performed. The head twitch response (HTR) in mice was induced using DOI (2.5 mg/kg, i.p.). Immediately after treatment, the number of head twitches was counted during a 20 min session.

[3] = test system: MK-801-induced hyperactivity in mice; assay: MK-801-induced hyperactivity; conditions: mice, 2.5, 5, or 10 mg/kg
Procedure: The locomotor activity was recorded individually for each animal in locomotor activity cages with modifications. […] After 30 min, all of the mice were injected i.p. with MK-801 at 0.35 mg/kg and once again placed in the same cage. From then on, the ambulation scores were counted for 60 min. All of the groups were compared with the MK-801 control group. The experiment also included a control group treated with NaCl only.

[4] = test system: naïve mice; assay: Spontaneous locomotor activity of naïve mice; conditions: compound alone
[5] = test system: MK-801-induced disruptions of social interactions in mice; assay: Social interaction test (MK-801-induced deficits); conditions: all tested doses
Procedure: The method was adapted from de Moura Linck et al., 2008 [57], and Woźniak et al., 2016 [58]. After the 2-day habituation trial (10 min/day), a pair of mice was placed in the open field for 5 min. The social interactions between the two mice were determined based on the total time spent participating in social behavior, such as genital investigation, sniffing, chasing, and fighting each other. The total number of social episodes was also measured. The test was video-recorded and viewed by a trained observer.

[6] = test system: recognition index in mice; assay: Novel object recognition test
Procedure: This procedure was adapted from and performed as described in a previous paper. Habituation, training and test trials were performed in a black plastic rectangular arena (40 × 30 × 35 cm) illuminated with a light intensity of 335 lux. During the habituation trial (2 consecutive days), each animal was allowed to explore the arena for 10 min. The next day, during the training trial (T1), mice were placed in the arena and were presented with two identical objects (red glass cylinders; 6.5 cm in diameter and 4.5 cm high) for 5 min. After 1 h, animals were placed back into the arena for a 5 min test trial, during which one of the previously presented familiar objects was replaced with a novel object (a transparent glass elongated sphere-like object with an orange cap; 5.5 cm in diameter and 8.5 cm high). Time spent exploring (i.e., sniffing or touching) the familiar (Tfamiliar) and novel (Tnovel) objects was measured by a trained observer, and the recognition index (%) was calculated for each mouse [(Tnovel − Tfamiliar)/(Tfamiliar + Tnovel)] “×” 100.

[7] = test system: choice accuracy in rats; assay: Spatial delayed alternation test
[8] = test system: prepulse inhibition in rats; assay: Prepulse inhibition test

- AUC(0-t) ([1]; iv, brain, i.v. 3 mg/kg): 3.27 µM·h
- Cmax ([1]; iv, brain, i.v. 3 mg/kg): 1850 nM
- Tmax ([1]; iv, brain, i.v. 3 mg/kg): 0.25 h
- half-life ([1]; iv, brain, i.v. 3 mg/kg): 3.41 h
- AUC(0-t) ([1]; iv, plasma, i.v. 3 mg/kg): 2.91 µM·h
- Cmax ([1]; iv, plasma, i.v. 3 mg/kg): 1590 nM
- Tmax ([1]; iv, plasma, i.v. 3 mg/kg): 0.25 h
- Vd ([1]; iv, plasma, i.v. 3 mg/kg): 7.63 L/kg
- half-life ([1]; iv, plasma, i.v. 3 mg/kg): 2.26 h
- bioavailability ([1]; plasma, oral, p.o. 5 mg/kg vs i.v. 3 mg/kg, read-out: F (peroral bioavailability)): 58%
- AUC(0-t) ([1]; po, brain, p.o. 5 mg/kg): 2.97 µM·h
- Cmax ([1]; po, brain, p.o. 5 mg/kg): 1360 nM
- Tmax ([1]; po, brain, p.o. 5 mg/kg): 0.5 h
- half-life ([1]; po, brain, p.o. 5 mg/kg): 2.95 h
- AUC(0-t) ([1]; po, plasma, p.o. 5 mg/kg): 2.63 µM·h
- Cmax ([1]; po, plasma, p.o. 5 mg/kg): 1090 nM
- Tmax ([1]; po, plasma, p.o. 5 mg/kg): 0.5 h
- half-life ([1]; po, plasma, p.o. 5 mg/kg): 3.08 h
- spontaneous locomotor activity [4]: no effect
- recognition index, compound alone (NOR) ([6]; naïve mice): no significant impact
- choice accuracy, compound administered alone [7]: no negative effect
- disturbance of the PPI response, compound alone ([8]; highest investigated dose 10 mg/kg): ~ 50%
Structure (SMILES): COc1cccc(-c2ccc3nc(-c4ccccc4Cl)n(C)c(=O)c3c2)c1OC [ALX-171, 2-(2-chlorophenyl)-6-(2,3-dimethoxyphenyl)-3-methylquinazolin-4(3H)-one]
- DOI-induced head twitches in mGlu7 knockout (KO) mice ([2]; mGlu7 KO mice): had no further effect
- number of DOI-induced head shakes ([2]; mice, 2.5, 5, and 10 mg/kg i.p., vs control group): significantly attenuated
- MK-801-induced increase in locomotor activity [3]: not able to reverse
- MK-801-induced disruption in the interaction time [5]: reversed
- MK-801-induced disruption in the number of episodes [5]: reversed
- MK-801-induced decrease in the recognition index (NOR) ([6]; mice, 1, 2.5, and 5 mg/kg): ameliorated
- MK-801-induced disruptions in the number of alternations ([7]; highest dose tested 5 mg/kg): reversed
- MK-801-induced decrease of prepulse inhibition ([8]; any of the investigated doses): no effect

Reference: paper PMC9916658, “Design and Synthesis of New Quinazolin-4-one Derivatives with Negative mGlu7 Receptor Modulation Activity and Antipsychotic-Like Properties” (International Journal of Molecular Sciences, 2023)
